Assay results: patent US6737237B1, “Antimicrobial agents, diagnostic reagents, and vaccines based on unique Apicomplexan parasite components” (Apicomplexan Therapeutics, LLC, priority 1999, dated 2004)
In brackets after ≈: the same amount, converted by molar mass. Several values for one entry are separate records, joined by “and”; a condition that tells them apart may be missing. Equal values may be shown once. Read-outs that look alike come from different tables or passages of the source.

Legend:
C. parvum = C. parvum infection of MDBKF5D2 cell monolayers, immunofluorescence assay at 48 hours; assay type: cell-based, Cryptosporidium parvum; settings: for approximate 95% C1 count (mean parasite count per field): media alone ~1800
Protocol: C. parvum oocysts at 50,000/well were incubated at 37° C. (8% CO2) on confluent MDBKF5D2 cell monolayers in 96 well microtiter plates with the following concentrations of each drug. […] The level of infection of each well was determined and analyzed by an immunofluorescence assay at 48 hours using an antibody to C. parvum sporozoites made in rabbits at a concentration of 0.1%. Fluorescein-conjugated goat anti-rabbit antibody was used at a concentration of 1%.
(8% carbon dioxide) on confluent MDBKF5D2 cell monolayers in 96 well microtiter plates. The level of infection of each well was determined and analyzed by an immunofluorescence assay at 48 hours using as an antibody C. parvum sporozoite rabbit anti-serum (0.1%), and using fluorescein-conjugated goat anti-rabbit antibody (1%). Data are expressed as mean parasite count/field when 16 fields counted at 10× magnification “s.d. of the mean” (FIG. 6).

[1] = system: mutant R5 strain of T. gondii; test: Growth of mutant R5 strain of T. gondii in HFF over 8 days, uracil uptake; assay type: cell-based, Toxoplasma gondii; settings: gabaculine 20 mM; P/S
Protocol: Improvements were developed in the assays reported by Mack et al. (1984) and Holfels et al. (1994) to measure T. gondii replication in tissue culture. The improvements are based on microscopic visual imspection of infected and inhibitor treated cultures, and on quantitation of nucleic acid synthesis of the parasite by measure intake of ^3H uracil onto the parasite's nucleic acid. Uracil is not utilized by mammalian cells. […]
First the toxicity of gabaculine was assessed by its ability to prevent growth of human foreskin fibroblasts (HFF) as measured by ^3H-thymidine uptake and microscopic evaluation. […] Parasite growth was measured by the ability to incorporate ^3H-uracil during the last 18 hours of culture. In addition, parasite growth was evaluated microscopically in Giemsa stained slides.
This mutant strain is atovaquone resistant and posseses certain characterisitics of the tachyzoite stage and certain characteristics of the bradyzoite stage. T. gondii growth is measure by their ability to incorporate tritiated uracil and is expressed as counts/minute (CPM) on the Y-axis. […]

[2] = system: T. gondii tachyzoites (RH strain); test: microbe, parasite or virus in culture; assay type: cell-based, Toxoplasma gondii
Protocol: The improvements are based on microscopic visual imspection of infected and inhibitor treated cultures, and on quantitation of nucleic acid synthesis of the parasite by measure intake of ^3H uracil onto the parasite's nucleic acid. Uracil is not utilized by mammalian cells. […] Only the RH strain tachyzoites, cultured for up to 72 hours, had been used in previously reported assays. The use of Me49, Ptg, and R5 mutant are unique aspects of the methods used in these assays in this invention.
(§1) In these assays toxicity of a candidate inhibitor was assessed by its ability to prevent growth of human foreskin fibroblasts (HFF) after 4 days and after 8 days as measured by tritiated thymidine uptake and microscopic evaluation. Confluent monolayers of HFF were infected with tachyzoites and bradyzoites. Inhibitor was added one hour later. Non-toxic doses were used in parasite growth inhibition assays. Parasite growth was measured by ability to incorporate tritiated uracil during the last 18 hours of culture.
(§2) First the toxicity of gabaculine was assessed by its ability to prevent growth of human foreskin fibroblasts (HFF) as measured by ^3H-thymidine uptake and microscopic evaluation. Non-toxic doses were used in parasite growth inhibition assays. in vitro parasite growth inhibition assays included confluent monolayers of HFF infected with tachyzoites (RH) or mutant Me49 (R5). Gabaculine was added 1 hour later. Parasite growth was measured by the ability to incorporate ^3H-uracil during the last 18 hours of culture. In addition, parasite growth was evaluated microscopically in Giemsa stained slides.
ii) in vitro Parasite Growth Inhibition Assays: Confluent monolayers of HFF cells, grown in 96-well plates are infected with T. gondii tachyzoites of the RH strain and serial dilutions of anti-microbial compound are applied 1 hour later. T. gondii growth is assessed in these cultures by their ability to incorporate tritiated uracil (2.5 μCi/well) added during the last 18 hours of culture. After harvesting cells with an automatic cell harvester, uracil incorporation is measured by liquid scintillation.

[3] = system: P. falciparum asexual erythrocytic forms; test: P. falciparum in vitro growth, clone not stated; assay type: cell-based, Plasmodium falciparum
Protocol: This assay is performed in folate deficient RPMI 1640 over a 66 hour incubation in plasma as described by Milhous et al. (1985). Both the W2 clone DHFR resistant phenotype and the D6 clone are used (Odula et al., 1988) (Table 3).

[4] = system: human foreskin fibroblasts (HFF); test: Toxicity: growth of fibroblasts, tritiated thymidine uptake and microscopic evaluation; assay type: cell-based; settings: similar concentrations (20 mM gabaculine)
Protocol: as §1, §2
d) Inhibitors: Inhibitor compounds are tested over a range of concentrations for toxicity against mammalian cells by assessing their ability to prevent cell growth as measured by tritiated thymidine uptake and inspection of the monolayer using microscopic evaluation. […]

[5] = system: T. gondii isocitrate lyase; test: Isocitrate lyase enzyme activity in T. gondii tachyzoite lysates; assay type: biochemical, Toxoplasma gondii
Protocol: Parasite lysates were obtained from tachyzoites, suspended in elution buffer (100 mM KCL, 20% gylcerol 7 mM 2-mercaptoethanol, 20 mM Tris-HCL, pH 7.5, and complete protease inhibitor cocktail) [Boehringer Mannheim, 1 table per 50 ml buffer], sonicated 3 times for 3 seconds at 30 sec intervals, and centrifuged at 12,000 g for 15 min. The supernatant collected was applied to a Sephadex® G100 column (25 ml, Pharmacia) equilibrated with elution buffer, eluted with 15 ml of elution buffer,. and ≈1.5 ml fractions were collected. Fraction(s) with the peak protein concentrations (protein analysis performed on a spectrophotometer at 280 nm) were selected and used in enzyme assays.
A discontinuous method descrobed by Ko and McFadden^17 was employed with minor modifications to measure the ability of isocitrate lyase to convert isocitrate to succinate and glyoxylate. This method utilizes the colorimetric reaction between the phenylhydrozone of glyoxylate and ferricyanide. Reaction mixtures (92 mM MOPS, 5 mM MgCL2, 1 mM DTT, 1% phenylhydrazine, 4.4 mM isocitrate, in 0.5 ml with fractionated parasite lysate) were incubated in a 37° C. water bath for a determined amount of time. After incubation, enzymatic reactions were stopped with concentrated HCl, mixed with 25% (w/v) potassium ferricyanide, and then measured in a spectrophotometer at 520 nm.

[6] = system: D6 clone of Plasmodium falciparum; test: P. falciparum in vitro assay (Milhous et al., 1985), D6 clone; assay type: cell-based; settings: D6 clone, folate deficient RPMI 1640, 66 hour incubation
T. gondii EPSP synthase = T. gondii EPSP synthase enzyme activity (HPLC); assay type: biochemical, Toxoplasma gondii; settings: 1 mM
Protocol: Assays for 4-aminobenzoate and 4-amino-4-deoxychorismate are performed as described previously.” Enzyme Assays: The 5-enolpyruvylshikimate-3-phosphate (EPSP) synthase assay entailed monitoring the generation of EPSP using HPLC. Reaction components were separated using a Hypersil H3APS2 HPLC column (Hichrom Limited, Reading, UK) and a NaH2PO4 elution gradient (50-400 mM). UV spectra (200-300 nm) of the colume eluate were collected to identify eluants. […] The peaks at 215 nm were integrated; the EPSP produced was quantified using a standard curve of authentic EPSP. Parasite extracts were produced at 4° C. by suspension of pure tachyzoites in extraction buffer (50 mM Tris.HCl, pH 7.5, containing complete TM protease inhibitor cocktail [Boehringer Mannheim, 1 tablet per 50 ml buffer]), sonication 3 times for 3 seconds at 30 second intervals, and centrifugation at 12000 g for 15 min. The resulting supernatant was diluted 6-fold with extraction buffer and loaded onto a ResourceQ column (1 ml, Pharmacia) equilibrated with extraction buffer. The bound protein was eluted in a single step using extraction buffer containing 500 mM Kcl. The eluted material was used for enzyme assay. The assay mix contained 1 mM phosphoenolpyruvate, 1 mM SP and 50 mM HEPES, pH 7.5. […] Protein concentrations of lysates were determined using the Lowry method. […]

T. gondii = test: Assay for synergy in vitro: inhibitors alone and together on replication of T. gondii (uracil CPM); assay type: cell-based, Toxoplasma gondii; settings: Drug A alone: NPMG (3.25 mM)
Source text: The effect of enzymes in pathways “in parallel” are additive and in “series” are more than the additive effect of either inhibitor used alone (i.e., synergistic). […] The shikimate pathway produces 3,4-dihdroxybenzoate which is converted to ubiquinone, an essential component of the electron transport chain. Thus, NPMG, an inhibitor of EPSP-synthase, indirectly affects ubiquinone production and, thus, the electron transport chain. Similarly, heme is required for production of cytochromes in the electron transport chain. Thus, inhibition of heme production by gabaculine also indirectly affects the conventional electron transport chain. […] T. gondii growth is measured by their ability to incorporate tritiated uracil and is expressed as counts/minute (CPM).
g) Assays for Synergy in vitro: This is an assy in which ≦50% inhibitor concentrations of two antimicrobial agents are added alone and together to determine whether there is an additive, synergistic or inhibitory interaction. All other aspects of this assay are as described herein.

NC1C=CC=C(C(=O)O)C1 (centres unmarked) [gabaculine, 3-amino-2,3-dihydrobenzoic acid]
approximate 95% C1 count (mean parasite count per field) (C. parvum; gabaculine 0.2 μg/ml): ~1300 | approximate 95% C1 count (mean parasite count per field) (C. parvum; gabaculine 2 μg/ml): ~600 | approximate 95% C1 count (mean parasite count per field) (C. parvum; gabaculine 20 μg/ml): ~200 | Parasite growth of R5 strain over 8 days (CPM) [1]: restricted in cultures with 20 mM gabaculine (gabaculine) over the first 6 days of culture | CPM restricted (tritiated uracil incorporation) [2]: around 50% | counts (tritiated uracil incorporation) [2]: about 5,000 CPM | inhibition at 5000 µM ([2]; Toxoplasma gondii, Fibroblast, 96 h, read-out: growth of T. gondii inhibited): ~60% | Parasite growth over the 8 day time course (CPM) ([2]; gabaculine 20 mM, P/S): restricted | IC50 ([3]; Plasmodium falciparum): ≥ 45 µg/mL | toxicity to the foreskin fibroblasts [4]: no toxicity

O=C(O)CC[N+](=O)[O-] [3-NPA, 3-Nitropropionic acid]
effect on Cryptosporidia in vitro (C. parvum): inhibited | CPM restricted (tritiated uracil incorporation) ([2]; 3-NPA 0.006 mg ml, 4-day, medium about 30,000 CPM): around 60% | Isocitrate lyase enzyme activity [5]: inhibition

O=C(O)CNCP(=O)(O)O [NPMG, N-(phosphonomethyl) glycine]
approximate 95% C1 count (mean parasite count per field) (C. parvum; NPMG 0.45 μg/ml): ~1200 | approximate 95% C1 count (mean parasite count per field) (C. parvum; NPMG 4.5 μg/ml): ~900 | approximate 95% C1 count (mean parasite count per field) (C. parvum; NPMG 0.045): ~1200 | effect of PABA on the effect of NPMG on C. parvum (C. parvum; PABA added): not abrogated by PABA | CPM restricted (tritiated uracil incorporation) ([2]; NPMG 3.12 mM, 4 day, medium around 72,000): around 60% | counts (tritiated uracil incorporation) ([2]; NPMG 4.5 mM, 4 day, medium around 72,000, no RH around 2,000 CPM): about 12,000 CPM | product rescue: effect of added PABA on inhibition by NPMG ([2]; PABA added to cultures): abrogates | inhibition at 4500 µM ([2]; Toxoplasma gondii, Fibroblast, 96 h, NPMG 4.5 mM, 4 day, read-out: parasite growth inhibited): ~80% | IC50 ([6]; read-out: IC 50): 0.823 µg/mL (≈ 4.87 µM) | IC90 ([6]; read-out: IC90): 2.51 µg/mL (≈ 14.8 µM) | antagonism of glyphosate growth inhibition by products ([3]; asexual erythrocytic forms, PABA and folate added): PABA and folate antagonism of growth inhibition | EPSP synthase enzyme activity (T. gondii EPSP synthase): inhibition | CPM for A (T. gondii): 28138 ± 2216 CPM and 25097 ± 1398 CPM
